According to the supplement of paper PMC10307832:

Experiments:
Assay in all cases: relative viability (nuclei count vs DMSO), 5 days (fraction); higher = more cells survive
201T = system: 201T
Summary of the method: (§1)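 Relative viability equals treated-well nuclei counts divided by vehicle-well nuclei counts. Counts came from 4× images of lung cancer cell lines grown in 1536-well plates for 5 days after pin-tool dosing on the day after seeding. Dosing used one drug alone or a fixed anchor-drug dose plus five library-drug doses (not always all listed) in √10 steps, and values are medians of duplicate plates.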

A-427 = system: A-427
Summary of the method: as §1

ABC-1 = system: ABC-1
Summary of the method: as §1

BEN = system: BEN
Summary of the method: as §1

CAL-12T = system: CAL-12T
Summary of the method: as §1

H3255 = system: H3255
Summary of the method: as §1

LC-2-ad = system: LC-2-ad
Summary of the method: as §1

LCLC-97TM1 = system: LCLC-97TM1
Summary of the method: as §1

NCI-H1650 = system: NCI-H1650
Summary of the method: as §1

NCI-H1651 = system: NCI-H1651
Summary of the method: as §1

NCI-H1915 = system: NCI-H1915
Summary of the method: as §1

NCI-H1944 = system: NCI-H1944
Summary of the method: as §1

NCI-H2023 = system: NCI-H2023
Summary of the method: as §1

NCI-H2087 = system: NCI-H2087
Summary of the method: as §1

NCI-H441 = system: NCI-H441
Summary of the method: as §1

NCI-H460 = system: NCI-H460
Summary of the method: as §1

NCI-H520 = system: NCI-H520
Summary of the method: as §1

NCI-H596 = system: NCI-H596
Summary of the method: as §1

NCI-H650 = system: NCI-H650
Summary of the method: as §1

NCI-H661 = system: NCI-H661
Summary of the method: as §1

NCI-H727 = system: NCI-H727
Summary of the method: as §1

PC-3 [JPC-3] = system: PC-3 [JPC-3]
Summary of the method: as §1

For `Nc1ccn([C@@H]2O[C@H](CO)[C@@H](O)[C@@H]2O)c(=O)n1` [Cytarabine] + N=C(N)NC(=N)NCCc1ccccc1 [Phenformin] (partner 250 µM), which relative viability (201T; first compound 0.005 µM) is on record?
The relative viability was 0.369.

And the relative viability (201T; first compound 0.01581 µM)?
The relative viability was 0.432.

What about the relative viability (201T; first compound 0.05 µM) of the same compound?
Its relative viability is 0.428.

And the relative viability (201T; first compound 0.1581 µM)?
The relative viability was 0.352.

What about the relative viability (201T; first compound 0.5 µM) of the same compound?
Its relative viability is 0.356.

And the relative viability (A-427; first compound 0.005 µM)?
The relative viability was 0.255.

And the relative viability (A-427; first compound 0.01581 µM)?
The relative viability was 0.188.

What about the relative viability (A-427; first compound 0.05 µM) of the same compound?
The relative viability was 0.207.

What about the relative viability (A-427; first compound 0.5 µM) of the same compound?
Its relative viability is 0.153.

What about the relative viability (ABC-1; first compound 0.005 µM) of the same compound?
The relative viability was 0.238.

What about the relative viability (ABC-1; first compound 0.01581 µM) of the same compound?
The relative viability was 0.211.

What about the relative viability (ABC-1; first compound 0.05 µM) of the same compound?
Its relative viability is 0.265.

What about the relative viability (ABC-1; first compound 0.1581 µM) of the same compound?
The relative viability was 0.223.

And the relative viability (ABC-1; first compound 0.5 µM)?
The relative viability was 0.174.

What about the relative viability (BEN; first compound 0.005 µM) of the same compound?
Its relative viability is 0.193.

And the relative viability (BEN; first compound 0.01581 µM)?
Its relative viability is 0.22.

And the relative viability (BEN; first compound 0.05 µM)?
The relative viability was 0.244.

And the relative viability (BEN; first compound 0.1581 µM)?
Its relative viability is 0.195.

What about the relative viability (BEN; first compound 0.5 µM) of the same compound?
Its relative viability is 0.212.

And the relative viability (CAL-12T; first compound 0.005 µM)?
The relative viability was 0.524.

And the relative viability (CAL-12T; first compound 0.01581 µM)?
Its relative viability is 0.489.

What about the relative viability (CAL-12T; first compound 0.05 µM) of the same compound?
The relative viability was 0.638.

And the relative viability (CAL-12T; first compound 0.1581 µM)?
Its relative viability is 0.283.

What about the relative viability (CAL-12T; first compound 0.5 µM) of the same compound?
Its relative viability is 0.18.

And the relative viability (H3255; first compound 0.005 µM)?
The relative viability was 0.301.

And the relative viability (H3255; first compound 0.01581 µM)?
Its relative viability is 0.336.

What about the relative viability (H3255; first compound 0.05 µM) of the same compound?
The relative viability was 0.296.

And the relative viability (H3255; first compound 0.1581 µM)?
Its relative viability is 0.25.

What about the relative viability (H3255; first compound 0.5 µM) of the same compound?
The relative viability was 0.273.

And the relative viability (LC-2-ad; first compound 0.005 µM)?
The relative viability was 0.454.

And the relative viability (LC-2-ad; first compound 0.01581 µM)?
The relative viability was 0.466.

What about the relative viability (LC-2-ad; first compound 0.05 µM) of the same compound?
The relative viability was 0.49.

What about the relative viability (LC-2-ad; first compound 0.1581 µM) of the same compound?
Its relative viability is 0.344.

And the relative viability (LC-2-ad; first compound 0.5 µM)?
Its relative viability is 0.261.

What about the relative viability (LCLC-97TM1; first compound 0.005 µM) of the same compound?
Its relative viability is 0.426.

And the relative viability (LCLC-97TM1; first compound 0.01581 µM)?
Its relative viability is 0.34.

And the relative viability (LCLC-97TM1; first compound 0.05 µM)?
Its relative viability is 0.354.

And the relative viability (LCLC-97TM1; first compound 0.1581 µM)?
Its relative viability is 0.201.

What about the relative viability (LCLC-97TM1; first compound 0.5 µM) of the same compound?
Its relative viability is 0.168.

And the relative viability (NCI-H1650; first compound 0.005 µM)?
The relative viability was 0.386.

And the relative viability (NCI-H1650; first compound 0.01581 µM)?
The relative viability was 0.263.

And the relative viability (NCI-H1650; first compound 0.05 µM)?
Its relative viability is 0.252.

And the relative viability (NCI-H1650; first compound 0.1581 µM)?
The relative viability was 0.177.

And the relative viability (NCI-H1650; first compound 0.5 µM)?
The relative viability was 0.125.

And the relative viability (NCI-H1651; first compound 0.005 µM)?
Its relative viability is 0.304.

What about the relative viability (NCI-H1651; first compound 0.01581 µM) of the same compound?
The relative viability was 0.346.

And the relative viability (NCI-H1651; first compound 0.05 µM)?
The relative viability was 0.319.

And the relative viability (NCI-H1651; first compound 0.1581 µM)?
The relative viability was 0.2.

And the relative viability (NCI-H1651; first compound 0.5 µM)?
The relative viability was 0.18.

What about the relative viability (NCI-H1915; first compound 0.005 µM) of the same compound?
The relative viability was 0.324.

What about the relative viability (NCI-H1915; first compound 0.01581 µM) of the same compound?
The relative viability was 0.328.

What about the relative viability (NCI-H1915; first compound 0.05 µM) of the same compound?
The relative viability was 0.329.

What about the relative viability (NCI-H1915; first compound 0.1581 µM) of the same compound?
Its relative viability is 0.268.

What about the relative viability (NCI-H1915; first compound 0.5 µM) of the same compound?
The relative viability was 0.245.

And the relative viability (NCI-H1944; first compound 0.005 µM)?
Its relative viability is 0.166.

What about the relative viability (NCI-H1944; first compound 0.01581 µM) of the same compound?
Its relative viability is 0.184.

What about the relative viability (NCI-H1944; first compound 0.05 µM) of the same compound?
The relative viability was 0.14.

What about the relative viability (NCI-H1944; first compound 0.1581 µM) of the same compound?
The relative viability was 0.106.

And the relative viability (NCI-H1944; first compound 0.5 µM)?
The relative viability was 0.103.

What about the relative viability (NCI-H2023; first compound 0.005 µM) of the same compound?
Its relative viability is 0.287.

And the relative viability (NCI-H2023; first compound 0.01581 µM)?
Its relative viability is 0.224.

What about the relative viability (NCI-H2023; first compound 0.05 µM) of the same compound?
Its relative viability is 0.183.

What about the relative viability (NCI-H2023; first compound 0.1581 µM) of the same compound?
Its relative viability is 0.0883.

And the relative viability (NCI-H2023; first compound 0.5 µM)?
The relative viability was 0.0962.

And the relative viability (NCI-H2087; first compound 0.005 µM)?
Its relative viability is 0.384.

And the relative viability (NCI-H2087; first compound 0.01581 µM)?
Its relative viability is 0.308.

And the relative viability (NCI-H2087; first compound 0.05 µM)?
Its relative viability is 0.373.

What about the relative viability (NCI-H2087; first compound 0.1581 µM) of the same compound?
Its relative viability is 0.229.

And the relative viability (NCI-H2087; first compound 0.5 µM)?
Its relative viability is 0.131.

And the relative viability (NCI-H441; first compound 0.005 µM)?
Its relative viability is 0.79.

What about the relative viability (NCI-H441; first compound 0.01581 µM) of the same compound?
Its relative viability is 0.655.

What about the relative viability (NCI-H441; first compound 0.05 µM) of the same compound?
Its relative viability is 0.783.

And the relative viability (NCI-H441; first compound 0.1581 µM)?
The relative viability was 0.399.

What about the relative viability (NCI-H441; first compound 0.5 µM) of the same compound?
Its relative viability is 0.298.

And the relative viability (NCI-H460; first compound 0.005 µM)?
Its relative viability is 0.309.

What about the relative viability (NCI-H460; first compound 0.01581 µM) of the same compound?
Its relative viability is 0.248.

What about the relative viability (NCI-H460; first compound 0.05 µM) of the same compound?
The relative viability was 0.114.

What about the relative viability (NCI-H460; first compound 0.1581 µM) of the same compound?
The relative viability was 0.0419.

What about the relative viability (NCI-H460; first compound 0.5 µM) of the same compound?
The relative viability was 0.0341.

What about the relative viability (NCI-H520; first compound 0.005 µM) of the same compound?
Its relative viability is 0.558.

And the relative viability (NCI-H520; first compound 0.01581 µM)?
The relative viability was 0.314.

And the relative viability (NCI-H520; first compound 0.05 µM)?
Its relative viability is 0.658.

What about the relative viability (NCI-H520; first compound 0.1581 µM) of the same compound?
Its relative viability is 0.383.

And the relative viability (NCI-H520; first compound 0.5 µM)?
Its relative viability is 0.323.

What about the relative viability (NCI-H596; first compound 0.005 µM) of the same compound?
Its relative viability is 0.801.

What about the relative viability (NCI-H596; first compound 0.01581 µM) of the same compound?
Its relative viability is 0.613.

And the relative viability (NCI-H596; first compound 0.05 µM)?
The relative viability was 0.694.

And the relative viability (NCI-H596; first compound 0.1581 µM)?
The relative viability was 0.624.

And the relative viability (NCI-H596; first compound 0.5 µM)?
The relative viability was 0.447.

And the relative viability (NCI-H650; first compound 0.005 µM)?
The relative viability was 0.448.

What about the relative viability (NCI-H650; first compound 0.01581 µM) of the same compound?
The relative viability was 0.33.

What about the relative viability (NCI-H650; first compound 0.05 µM) of the same compound?
Its relative viability is 0.185.

And the relative viability (NCI-H650; first compound 0.1581 µM)?
Its relative viability is 0.194.

What about the relative viability (NCI-H650; first compound 0.5 µM) of the same compound?
The relative viability was 0.187.

And the relative viability (NCI-H661; first compound 0.005 µM)?
Its relative viability is 0.264.

What about the relative viability (NCI-H661; first compound 0.01581 µM) of the same compound?
The relative viability was 0.254.

What about the relative viability (NCI-H661; first compound 0.05 µM) of the same compound?
Its relative viability is 0.239.

What about the relative viability (NCI-H661; first compound 0.1581 µM) of the same compound?
The relative viability was 0.23.

What about the relative viability (NCI-H661; first compound 0.5 µM) of the same compound?
The relative viability was 0.237.

And the relative viability (NCI-H727; first compound 0.005 µM)?
The relative viability was 0.451.

And the relative viability (NCI-H727; first compound 0.01581 µM)?
The relative viability was 0.479.

What about the relative viability (NCI-H727; first compound 0.05 µM) of the same compound?
The relative viability was 0.486.

What about the relative viability (NCI-H727; first compound 0.1581 µM) of the same compound?
Its relative viability is 0.406.

And the relative viability (NCI-H727; first compound 0.5 µM)?
The relative viability was 0.429.

And the relative viability (PC-3 [JPC-3]; first compound 0.005 µM)?
The relative viability was 0.493.

What about the relative viability (PC-3 [JPC-3]; first compound 0.01581 µM) of the same compound?
The relative viability was 0.468.

What about the relative viability (PC-3 [JPC-3]; first compound 0.05 µM) of the same compound?
The relative viability was 0.418.

And the relative viability (PC-3 [JPC-3]; first compound 0.1581 µM)?
The relative viability was 0.346.

And the relative viability (PC-3 [JPC-3]; first compound 0.5 µM)?
The relative viability was 0.358.
